Literature values as cited in patent US20120003311A9, “METHOD FOR CONTROLLED RELEASE OF AN ACID-UNSTABLE PHYSIOLOGICALLY ACTIVE SUBSTANCE” (EISAI R&D MANAGEMENT CO., LTD., priority 2004, published 2012).

What was measured:
[1] = descending colon vs jejunum

Structure (SMILES) | half-life at pH 7 [hours] | absorption rate in the descending colon as percentage of that of the jejunum [1] [%]
COc1ccnc(C[S+]([O-])c2nc3cc(OC(F)F)ccc3[nH]2)c1OC (centres unmarked) [pantoprazole] | 39 | 
COCCCOc1ccnc(C[S+]([O-])c2nc3ccccc3[nH]2)c1C (centres unmarked) [rabeprazole sodium] |  | ≤ 20
